These results are taken from patent EP1614683B1, “Indazole compounds and pharmaceutical compositions for inhibiting protein kinases, and methods for their use” (priority 1999, dated 2001).

Where two headings read alike, the source gives them in different places.

In data set [1] the target is T1, phosphorylated Tie-2 (aa 775-1122) (Homo sapiens, UniProt Q02763).
T1 construct: 4 to 12 nM phosphorylated Tie-2 (aa 775-1122); made in house; host or cells: insect cells
As to the kind of experiment: TIE-2 spectrophotometric assay. Type of data set: biochemical. Conditions: read-out: % Inhibition @ 1 µM Tie2-P. The protocol:
This construct also carries a R774M mutation, which serves as the initiating methionine residue in translation.
The kinase-catalyzed production of ADP from ATP that accompanies phosphoryl transfer to the random copolymer poly(Glu4 Tyr) was coupled to the oxidation of NADH through the activities of pyruvate kinase (PK) and lactate dehydrogenase (LDH). NADH conversion to NAD* was monitored by the decrease in absorbance at 340 nm (ε = 6.22 cm^-1mM^-1) using a Beckman DU650 spectrophotometer. Typical reaction solutions contained 1 mM phosphoenolpyruvate, 0.24 mM NADH, 40 mM MgCl2, 5 mM DTT, 2.9 mg/mL poly(Glu4Tyr), 0.5 mM ATP, 15 units/mL PK, 15 units/mL LDH in 100 mM HEPES, pH 7.5. […]

A further data set deals with T2, human CHK1 (FL-CHK1) (Homo sapiens, UniProt O14757).
T2 construct: C-terminally His-tagged full-length human CHK1 (FL-CHK1) was expressed using the baculovirus/insect cell system; made in house; host or cells: baculovirus/insect cell system
T2 sequence (O14757 1-476): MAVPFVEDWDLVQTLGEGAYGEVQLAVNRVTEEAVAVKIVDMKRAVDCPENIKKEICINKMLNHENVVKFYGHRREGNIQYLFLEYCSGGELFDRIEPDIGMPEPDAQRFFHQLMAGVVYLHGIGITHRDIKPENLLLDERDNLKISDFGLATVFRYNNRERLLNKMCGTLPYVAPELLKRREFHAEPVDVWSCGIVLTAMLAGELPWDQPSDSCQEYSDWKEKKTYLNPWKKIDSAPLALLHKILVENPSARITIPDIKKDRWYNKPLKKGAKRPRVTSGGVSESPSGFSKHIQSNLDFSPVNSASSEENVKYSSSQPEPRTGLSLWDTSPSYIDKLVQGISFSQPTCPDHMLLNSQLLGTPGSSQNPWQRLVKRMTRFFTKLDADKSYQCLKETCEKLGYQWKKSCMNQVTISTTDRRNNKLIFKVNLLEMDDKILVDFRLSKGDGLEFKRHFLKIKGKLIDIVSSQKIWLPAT
As to the kind of experiment: CHK1 coupled spectrophotometric assay. The settings on record: Table 1; read-out: CHK -1* (Ki). Type of data set: biochemical. An excerpt: CHK1 Construct for Assay: C-terminally His-tagged full-length human CHK1 (FL-CHK1) was expressed using the baculovirus/insect cell system. […] The protein was purified by conventional chromatographic techniques.
The production of ADP from ATP that accompanies phosphoryl transfer to the synthetic substrate peptide Syntide-2 ([…]) was coupled to oxidation of NADH using phosphoenolpyruvate (PEP) through the actions of pyruvate kinase (PK) and lactic dehydrogenase (LDH). The oxidation of NADH was monitored by following the decrease of absorbance at 340 nm (∈340 = 6.22 cm^-1 mM^-1) using a HP8452 spectrophotometer. […] Assays were initiated with 10 nM of FL-CHK1. Ki values were determined by measuring initial enzyme activity in the presence of varying concentrations of test compounds. The data were analyzed using Enzyme Kinetic and Kaleidagraph software.

Data set [2] has as its system human umbilical vein endothelial cells (HUVEC). As to the kind of experiment: HUVEC proliferation assay (VEGF-stimulated, MTT). The class given is cell-based. The settings on record: Homo sapiens, HUVEC, Table 1.
For the next data set, the target named is human FGF-R1 (Homo sapiens, UniProt P11362, C488A/C584S/L457V). As to the kind of experiment: FGF-R spectrophotometric assay. The class given is biochemical. The protocol:
The spectrophotometric assay was carried out as described above for VEGF-R2, except for the following changes in concentration: FGF-R = 50 nM, ATP = 2 mM, and poly(E4Y1) =15 mM.

The next data set concerns the target LCK tyrosine kinase (Homo sapiens, UniProt P06239, C224D/P223M). As to the kind of experiment: LCK spectrophotometric assay. The class given is biochemical. On the procedure:
The spectrophotometric assay was carried out as described above for VEGF-R2, except for the following changes in concentration: LCK = 60 nM, MgCl2 = 0 mM, poly(E4Y1) = 20 mM.

The conditions of data set [3]: mouse, in vivo.
Data set [4] concerns VEGF dependent retinal neovascularization. As to the kind of experiment: Neonatal rat model of retinopathy of prematurity. The settings on record: Model ROP. The class given is in vivo. On the procedure:
A second model of VEGF dependent retinal neovascularization was employed to evaluate the activities of this series of compounds. […] The animals are exposed for 24 hours to a concentration of 50% oxygen followed by 24 hours at a concentration of 10% oxygen. This alternating cycle of hyperoxia followed by hypoxia is repeated 7 times after which the animals are removed to room air (P14). Compounds are administered via intravitreal injection upon removal to room air and the animals are sacrificed 6 days later (P20). The isolated retinas are then isolated, stained mounted and analyzed as detail above in the development model. The effectiveness was also graded as is described for the development model.

[5] abbreviates: + albumin, read-out: HUVEC + albumin IC50.
Where [6] appears, read: Table 1, compound concentration 1 µM, read-out: FGF-P* (% inhibition).
Where [7] appears, read: Table 1, compound concentration 1 µM, read-out: Lck-P* (% inhibition).
[8] abbreviates: Table 5, 1 µM, bold values spectrophotometric assay, non-bolded DELFIA assay (bold not visible here).
The mark [9] stands for this setting: intravitreal, 1 mg/ml, vehicle PEG/water 70:30.
Where [10] appears, read: intravitreal, 10 mg/ml, vehicle PEG/water 70:30.

Sequence of LCK tyrosine kinase (P06239 223-509 P223M/C224D): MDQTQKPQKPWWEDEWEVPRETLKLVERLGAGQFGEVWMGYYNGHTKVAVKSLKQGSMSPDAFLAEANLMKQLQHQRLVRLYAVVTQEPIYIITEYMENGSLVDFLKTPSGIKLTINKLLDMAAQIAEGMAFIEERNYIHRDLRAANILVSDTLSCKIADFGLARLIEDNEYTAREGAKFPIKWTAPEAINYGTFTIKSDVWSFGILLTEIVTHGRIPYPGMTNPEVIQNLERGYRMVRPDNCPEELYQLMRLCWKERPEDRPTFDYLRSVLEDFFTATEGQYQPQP
T1 sequence (Q02763 775-1122): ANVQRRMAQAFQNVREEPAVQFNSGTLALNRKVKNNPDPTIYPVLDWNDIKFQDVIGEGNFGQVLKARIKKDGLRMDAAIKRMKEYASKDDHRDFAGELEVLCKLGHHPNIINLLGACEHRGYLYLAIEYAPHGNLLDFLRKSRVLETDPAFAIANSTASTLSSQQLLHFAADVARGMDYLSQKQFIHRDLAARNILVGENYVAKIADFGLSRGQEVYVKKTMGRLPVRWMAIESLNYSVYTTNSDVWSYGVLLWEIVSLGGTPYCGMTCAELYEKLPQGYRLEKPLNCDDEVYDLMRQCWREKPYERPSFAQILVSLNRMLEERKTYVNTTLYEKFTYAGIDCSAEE
Sequence of human FGF-R1 (P11362 456-766 L457V/C488A/C584S): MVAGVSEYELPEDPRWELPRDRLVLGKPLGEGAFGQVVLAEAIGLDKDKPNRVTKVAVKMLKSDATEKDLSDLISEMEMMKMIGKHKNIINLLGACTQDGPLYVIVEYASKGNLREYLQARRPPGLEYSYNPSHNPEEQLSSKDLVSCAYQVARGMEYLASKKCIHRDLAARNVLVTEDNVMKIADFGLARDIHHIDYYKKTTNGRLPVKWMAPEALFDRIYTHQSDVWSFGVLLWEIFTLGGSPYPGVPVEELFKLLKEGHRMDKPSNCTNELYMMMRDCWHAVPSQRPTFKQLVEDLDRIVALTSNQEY

By inhibition is commonly meant how much of the control response was suppressed. The term Ki denotes the dissociation constant of the complex between target and ligand, obtained from inhibition or displacement. With `Brc1cccc(Oc2ccc3c(/C=C/c4ccccc4)n[nH]c3c2)c1` [8(d), 6-(3-Bromo-phenoxy)-3-styryl-1H-indaxole], the inhibition at 1 µM in data set [1] was found to be 10%. Besides, at human CHK1 (FL-CHK1), the Ki was determined as 0.082 µM.
Usually IC50 stands for the point on the concentration scale where inhibition reaches its midpoint. `Cc1cccc(C(=O)Nc2cccc(N(C)c3ccc4c(/C=C/c5ccc6c(c5)OCO6)n[nH]c4c3)c2)c1` [16(b), N-(3-{[3-(2-Benzo[1,3]dioxol-5-yl-vinyl)-1H-indazol-6-yl]-methyl-amino}-phenyl)-3-methyl-benzamide]: the figures for the IC50 in data set [2] (setting [5]) and in data set [2] (read-out: HUVEC IC50) were 0.14 µM and 0.0047 µM, respectively. The inhibition at 1 µM at human FGF-R1 (setting [6]) was 73%; at LCK tyrosine kinase (setting [7]) it was 22%; in data set [1] (setting [8]), 52%.
Take `CC(=O)Nc1cccc(C(=O)c2ccc3c(/C=C/c4ccccc4)n[nH]c3c2)c1` [19(a), N-[3-(3-Styryl-1H-indazole-6-carbonyl)-phenyl]-acetamide]: in data set [2] (read-out: HUVEC IC50), the IC50 was determined as 0.044 µM. Also, the values for the inhibition at 1 µM (on human FGF-R1 (setting [6]); at LCK tyrosine kinase (setting [7]); in data set [1] (setting [8])) were 92%, 16% and 18%, respectively.
As for `Cc1cnc(C(=O)Nc2cccc(C(=O)c3ccc4c(/C=C/c5ccccc5)n[nH]c4c3)c2)s1` [19(d), 5-Methyl-thiazole-2-carboxylic acid [3-(3-styryl-1H-indazole-6-carbonyl)-phenyl]-amide], the half-inhibitory concentration (IC50) was found to be 0.034 µM in data set [2] (setting [5]) and 0.0068 µM in data set [2] (read-out: HUVEC IC50). Besides, the inhibition at 1 µM at human FGF-R1 (setting [6]) was 39%; at LCK tyrosine kinase (setting [7]), 33%; in data set [1] (setting [8]), 15%.
Turning to `Cc1cc(O)c(Cl)cc1-c1ccc2c(-c3nc4ccccc4[nH]3)n[nH]c2c1` [24(c), 4-[3-(1-H-Benzoimidazol-2-yl)-1-B-indazol-6-yl]-2-chloro-5-methyl-phenol], the inhibition at 1 µM on human FGF-R1 (read-out: FGF* (% inhibition)) turned out to be 89%; on LCK tyrosine kinase (read-out: Lck* (% inhibition)), 93%; in data set [1] it was 94%.
For orientation: % Inhibition means the change of the read-out against control, counted positive when it falls. The low end stands for a weak effect, the high end for a strong effect. As to `O=C(c1cccc(NC(=O)c2cccc3[nH]ccc23)c1)c1ccc2c(/C=C/c3ccccn3)n[nH]c2c1` [41 (d)], in data set [3] (ip, 25 mg/kg, pH 2.3), the AUCleast stood at 10324 ng·h/mL and the T1/2 is 2.8 h. Further, in data set [3] (po, 50 mg/kg, pH 2.3), the AUCleast was determined as 7072 ng·h/mL and the T1/2 is 1.5 h. Besides, the “% Inhibition” value in data set [4] (setting [9]) was determined as 0%.
On to `CCn1nc(C)cc1C(=O)Nc1cccc(C(=O)c2ccc3c(/C=C/c4ccccn4)n[nH]c3c2)c1.Cl` [Example 59(a), 6-[3-((1-Ethyl-3-methyl-1H-pyrazol-5-yl)carboxamido)benzoyl]-3-E-[2-(pyridin-2-yl)ethenyl]-1H-indazole hydrochloride], for which the T1/2 in data set [3] (po, 25 mg/kg) came to 1.6 h. The “% Inhibition” value in data set [4] (1 mg/ml, vehicle 0.5%CMC) was 19%; in data set [4] (10 mg/ml, vehicle C.5%CMC), 41%.
As to `Cc1ccc2cc(NC(=O)c3ccccc3Sc3ccc4c(/C=C/c5ccccc5)n[nH]c4c3)ccc2n1` [Reference Example 38(a), 6-[2-(2-Methylquinol-6-ylcarbamoyl)phenylsulfanyl]-3-E-(2-styryl)-1H-indazole], the figures for the inhibition at 1 µM on human FGF-R1 (setting [6]) and at LCK tyrosine kinase (setting [7]) were 74% and 77%, respectively. The “Initial Evaluation” value in data set [4] (setting [9]) is “+ (one plus being detectable regression judged to be approximately 25 percent or less)”; in data set [4] (setting [10]), “+++ (three pluses give to retinas with near total regression (approximately 75% or greater))”.
Regarding `O=C(c1cccc(NC(=O)c2cccc3[nH]ccc23)c1)c1ccc2c(/C=C/c3ccccn3)n[nH]c2c1` [Reference Example 41(d), 6-[3-(indol-4-ylcarboxamido)benzoyl]-3-E-[2-(pyridin-2-yl)ethenyl]-1H-indazole], the IC50 in data set [2] (setting [5]) worked out at 0.0064 µM. For the same molecule, in data set [2] (read-out: HUVEC IC50), the half-inhibitory concentration (IC50) amounted to 0.0009 µM. In data set [4] (setting [10]), the “% Inhibition” value was determined as 59% and the “Initial Evaluation” value is recorded as “+++ (three pluses give to retinas with near total regression (approximately 75% or greater))”.
